{"source": "ChEMBL document CHEMBL5705896", "about": "(ACS Chem Biol, 2013)", "key": {"[1]": {"biological_target": "Mitogen-activated protein kinase 9 (Homo sapiens) (UniProt P45984)", "assay": "Inhibition of human catalytic domain N-terminal GST tagged JNK2 (1 to 364 residues) expressed in Escherichia coli expression system using modified Erktide as substrate at 10 uM by mobility shift assay relative to control"}, "[2]": {"biological_target": "Histone-lysine N-methyltransferase SETD7 (Homo sapiens, UniProt Q8WTS6)", "assay": "Inhibition of SETD7 (unknown origin) using [3H-SAM] as substrate incubated for 1 hr by scintillation proximity assay"}, "[3]": {"biological_target": "Mitogen-activated protein kinase 14 (Homo sapiens) (UniProt Q16539)", "assay": "Inhibition of truncated human N-terminal GST-tagged p38 alpha (9 to 352 residues) expressed in Escherichia coli expression system using modified Erktide as substrate at 10 uM by mobility shift assay relative to control"}, "[4]": {"biological_target": "Alpha-1A adrenergic receptor (Homo sapiens) (UniProt P35348)", "assay": "Inhibition of Alpha1A receptor (unknown origin) at 10 uM by radioligand binding assay relative to control"}, "[5]": {"biological_target": "3-phosphoinositide-dependent protein kinase 1 (Homo sapiens) (UniProt O15530)", "assay": "Inhibition of full length human N-terminal GST tagged PDK1 (1 to 556 end residues) expressed in baculovirus expression system using T308tide as substrate at 10 uM by mobility shift assay relative to control"}, "[6]": {"biological_target": "Serine/threonine-protein kinase Sgk1 (Homo sapiens) (UniProt O00141)", "assay": "Inhibition of truncated human N-terminal GST-tagged SGK (61 to 431 end residues) expressed in baculovirus expression system using SGKtide as substrate at 10 uM by mobility shift assay relative to control"}, "[7]": {"biological_target": "Delta-type opioid receptor (Homo sapiens) (UniProt P41143)", "assay": "Inhibition of DOR (unknown origin) at 10 uM by radioligand binding assay relative to control"}, "[8]": {"biological_target": "Interleukin-1 receptor-associated kinase 4 (Homo sapiens) (UniProt Q9NWZ3)", "assay": "Inhibition of full length human N-terminal GST tagged IRAK4 (1 to 460 end residues) expressed in baculovirus expression system using IRAK1 as substrate at 10 uM by mobility shift assay relative to control"}, "[9]": {"biological_target": "T1, Histone-lysine N-methyltransferase EZH2 (Homo sapiens, UniProt Q15910)", "assay": "Inhibition of EZH2 methyltransferase activity (unknown origin) in PRC2 complex using 3H-SAM as substrate by Scintillation proximity assay"}, "[10]": {"biological_target": "Platelet-derived growth factor receptor alpha (Homo sapiens) (UniProt P16234)", "assay": "Inhibition of human cytoplasmic domain N-terminal GST tagged PDGFR alpha (550 to 1089 residues) expressed in baculovirus expression system using CSKtide as substrate at 10 uM by mobility shift assay relative to control"}, "[11]": {"biological_target": "T1, Histone-lysine N-methyltransferase EZH2"}, "[12]": {"biological_target": "Histamine H1 receptor (Homo sapiens) (UniProt P35367)", "assay": "Inhibition of H1 receptor (unknown origin) at 10 uM by radioligand binding assay relative to control"}, "[13]": {"biological_target": "Kappa-type opioid receptor (Homo sapiens) (UniProt P41145)", "assay": "Inhibition of KOR (unknown origin) at 10 uM by radioligand binding assay relative to control"}, "[14]": {"biological_target": "Serine/threonine-protein kinase pim-1 (Homo sapiens) (UniProt P11309)", "assay": "Inhibition of full length human N-terminal his-tagged PIM1 (1 to 313 end residues) expressed in baculovirus expression system using S6K2 peptide as substrate at 10 uM by mobility shift assay relative to control"}, "[15]": {"biological_target": "Tyrosine-protein kinase JAK3 (Homo sapiens) (UniProt P52333)", "assay": "Inhibition of human catalytic domain N-terminal his tagged JAK3 (795 to 1124 end residues) expressed in baculovirus expression system using Srctide as substrate at 10 uM by mobility shift assay relative to control"}, "DB [16]": {"tested_on": "DB", "assay": "Antiproliferative activity against human DB cells assessed as reduction in cell viability at 100 to 5000 nM measured after 3 days by cell proliferation assay", "format": "functional, cell-based", "conditions": "dose 100-5000 nM, time 3.0 day"}, "DB [17]": {"tested_on": "DB", "assay": "Antiproliferative activity against human DB cells assessed as reduction in cell viability at 3000 nM measured after 8 days by cell proliferation assay", "format": "functional, cell-based", "conditions": "time 8.0 day"}, "[18]": {"biological_target": "Aurora kinase A (Homo sapiens) (UniProt O14965)", "assay": "Inhibition of full length human N-terminal GST tagged AurA (1 to 403 end residues) expressed in baculovirus expression system using kemptide as substrate at 10 uM by mobility shift assay relative to control"}, "[19]": {"biological_target": "Tyrosine-protein kinase ITK/TSK (Homo sapiens) (UniProt Q08881)", "assay": "Inhibition of human cytoplasmic domain N-terminal GST tagged ITK (2 to 620 end residues) expressed in baculovirus expression system using Srctide as substrate at 10 uM by mobility shift assay relative to control"}, "[20]": {"biological_target": "Beta-3 adrenergic receptor (Homo sapiens) (UniProt P13945)", "assay": "Inhibition of Beta3receptor (unknown origin) at 10 uM by radioligand binding assay relative to control"}, "[21]": {"biological_target": "N-lysine methyltransferase KMT5A (Homo sapiens, UniProt Q9NQR1)", "assay": "Inhibition of SETD8 (unknown origin) using [3H-SAM] as substrate incubated for 1 hr by scintillation proximity assay"}, "[22]": {"biological_target": "Histamine H2 receptor (Homo sapiens) (UniProt P25021)", "assay": "Inhibition of H2 receptor (unknown origin) at 10 uM by radioligand binding assay relative to control"}, "DB [23]": {"tested_on": "DB", "assay": "Downregulation of EZH2 level in human DB cells at 3000 nM measured after 3 days", "format": "functional, cell-based", "conditions": "time 3.0 day"}, "[24]": {"biological_target": "Insulin-like growth factor 1 receptor (Homo sapiens) (UniProt P08069)", "assay": "Inhibition of human cytoplasmic domain N-terminal GST tagged IGF1R (959 to 1367 end residues) expressed in baculovirus expression system using IRS1 as substrate at 10 uM by mobility shift assay relative to control"}, "[25]": {"biological_target": "Alpha-1D adrenergic receptor (Homo sapiens) (UniProt P25100)", "assay": "Inhibition of Alpha1D receptor (unknown origin) at 10 uM by radioligand binding assay relative to control"}, "[26]": {"biological_target": "D(1A) dopamine receptor (Homo sapiens) (UniProt P21728)", "assay": "Inhibition of dopamine D1 receptor (unknown origin) at 10 uM by radioligand binding assay relative to control"}, "[27]": {"biological_target": "Serine/threonine-protein kinase 4 (Homo sapiens) (UniProt Q13043)", "assay": "Inhibition of full length human N-terminal GST tagged MST1 (1 to 487 end residues) expressed in baculovirus expression system using IRS1 as substrate at 10 uM by mobility shift assay relative to control"}, "[28]": {"assay": "Cmax in Swiss albino mouse at 15 to 150 mg/kg administered as single ip dose measured upto 24 hrs", "format": "ADME, organism-based", "conditions": "in vivo, dose 15-150 mg/kg"}, "[29]": {"biological_target": "Receptor-type tyrosine-protein kinase FLT3 (Homo sapiens) (UniProt P36888)", "assay": "Inhibition of human cytoplasmic domain N-terminal GST tagged FLT3 (564 to 993 end residues) expressed in baculovirus expression system using Srctide as substrate at 10 uM by mobility shift assay relative to control"}}, "note": "Active and inactive are the calls of the source. The rule behind the calls is not given here."}
{"smiles": "CCCc1cc(C)[nH]c(=O)c1CNC(=O)c1cc(-c2ccc(N3CCN(C(C)C)CC3)nc2)cc2c1cnn2C(C)C", "values": [{"measurement": "inhibition", "setting": "[1]", "result": 5, "unit": "%"}, {"measurement": "IC50", "setting": "[2]", "result": "> 100", "unit": "µM"}, {"measurement": "inhibition", "setting": "[3]", "result": 0, "unit": "%"}, {"measurement": "inhibition", "setting": "[4]", "result": 3, "unit": "%"}, {"measurement": "inhibition", "setting": "[5]", "result": -6, "unit": "%"}, {"measurement": "inhibition", "setting": "[6]", "result": -3, "unit": "%"}, {"measurement": "inhibition", "setting": "[7]", "result": 21, "unit": "%"}, {"measurement": "inhibition", "setting": "[8]", "result": -7, "unit": "%"}, {"measurement": "IC50", "setting": "[9]", "result": "< 10", "unit": "nM"}, {"measurement": "inhibition", "setting": "[10]", "result": -5, "unit": "%"}, {"measurement": "Ki", "setting": "[11]", "result": 4.6, "unit": "nM"}, {"measurement": "inhibition", "setting": "[12]", "result": 16, "unit": "%"}, {"measurement": "inhibition", "setting": "[13]", "result": 34, "unit": "%"}, {"measurement": "inhibition", "setting": "[14]", "result": 1, "unit": "%"}, {"measurement": "inhibition", "setting": "[15]", "result": -8, "unit": "%"}, {"measurement": "Activity", "setting": "DB [16]", "result": "inactive"}, {"measurement": "Activity", "setting": "DB [17]", "result": "Active"}, {"measurement": "inhibition", "setting": "[18]", "result": -4, "unit": "%"}, {"measurement": "inhibition", "setting": "[19]", "result": -2, "unit": "%"}, {"measurement": "inhibition", "setting": "[20]", "result": 10, "unit": "%"}, {"measurement": "IC50", "setting": "[21]", "result": "> 100", "unit": "µM"}, {"measurement": "inhibition", "setting": "[22]", "result": 30, "unit": "%"}, {"measurement": "Activity", "setting": "DB [23]", "result": "inactive"}, {"measurement": "inhibition", "setting": "[24]", "result": -7, "unit": "%"}, {"measurement": "inhibition", "setting": "[25]", "result": 14, "unit": "%"}, {"measurement": "inhibition", "setting": "[26]", "result": 13, "unit": "%"}, {"measurement": "inhibition", "setting": "[27]", "result": -5, "unit": "%"}, {"measurement": "Cmax", "setting": "[28]", "result": 9.7, "unit": "µM"}, {"measurement": "inhibition", "setting": "[29]", "result": 16, "unit": "%"}]}
